According to PubChem BioAssay AID1645866 (Buhrlage Lab, Dana-Farber Cancer Institute and Novartis …, 2021):
Calls of active or inactive are those of the source.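 The calls were made as follows: active = in confirmatory dose-response testing, peak deubiquitinase inhibition of 30% or more; inactive = the rest.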

target: Ubiquitin carboxyl-terminal hydrolase 28 (Homo sapiens) (UniProt Q96RU2); assay: Concentration-response biochemical assay confirming initial hits as inhibitors of ubiquitin-specific protease 28 (AID 1645866); conditions: purified USP28, ubiquitin-rhodamine fluorescence, 30 min
Sequence (Q96RU2 whole entry, looked up): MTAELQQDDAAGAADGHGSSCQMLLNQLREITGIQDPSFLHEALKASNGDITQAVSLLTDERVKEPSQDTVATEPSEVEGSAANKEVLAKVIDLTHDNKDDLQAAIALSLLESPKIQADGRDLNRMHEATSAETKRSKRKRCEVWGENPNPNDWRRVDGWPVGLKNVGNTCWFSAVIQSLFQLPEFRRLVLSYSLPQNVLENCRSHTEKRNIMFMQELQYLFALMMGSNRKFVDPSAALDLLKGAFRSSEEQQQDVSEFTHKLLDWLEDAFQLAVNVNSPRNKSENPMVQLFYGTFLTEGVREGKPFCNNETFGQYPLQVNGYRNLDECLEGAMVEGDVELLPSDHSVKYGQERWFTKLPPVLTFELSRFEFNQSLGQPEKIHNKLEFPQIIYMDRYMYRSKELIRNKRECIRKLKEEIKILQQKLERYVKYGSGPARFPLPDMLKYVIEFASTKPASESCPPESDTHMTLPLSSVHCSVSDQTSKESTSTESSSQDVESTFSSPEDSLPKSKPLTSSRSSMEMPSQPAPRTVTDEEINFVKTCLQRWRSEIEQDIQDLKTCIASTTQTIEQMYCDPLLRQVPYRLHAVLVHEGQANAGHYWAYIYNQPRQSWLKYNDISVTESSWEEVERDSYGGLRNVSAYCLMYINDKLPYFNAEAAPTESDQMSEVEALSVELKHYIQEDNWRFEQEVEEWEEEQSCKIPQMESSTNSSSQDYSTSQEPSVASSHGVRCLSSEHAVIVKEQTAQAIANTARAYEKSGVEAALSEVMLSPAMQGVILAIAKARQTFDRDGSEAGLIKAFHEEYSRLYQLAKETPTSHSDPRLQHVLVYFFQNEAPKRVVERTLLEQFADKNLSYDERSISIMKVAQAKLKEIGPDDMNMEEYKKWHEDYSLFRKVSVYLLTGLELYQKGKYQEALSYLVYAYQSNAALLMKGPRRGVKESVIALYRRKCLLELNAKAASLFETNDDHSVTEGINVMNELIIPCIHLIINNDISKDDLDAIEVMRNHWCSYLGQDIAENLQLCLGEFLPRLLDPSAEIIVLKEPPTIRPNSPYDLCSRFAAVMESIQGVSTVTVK

Row | Compound | IC50
1 | Cc1cc2c(cc1C)NC(CC(=O)Nc1ccc(O)cc1)C(=O)N2 (centres undefined) | 25 µM
2 | O=C(Nc1ccc(F)cc1F)NC1CCN(c2ccccc2)C1=O (centres undefined) | 21.7 µM
3 | CC(=O)c1ccc(NC(=O)C[n+]2cc(-c3ccc(Cl)cc3)n3c2CCC3)cc1 | 31.9 µM
4 | CCCc1nc2sc3c(NCCc4ccc(OC)c(OC)c4)ncnc3c2c2c1CCC2 | < 0.05 µM
5 | CC1(C(=O)NCc2ccccc2)Cn2c(cc3ccccc32)C(=O)N1Cc1ccccc1 (centres undefined) | 48.7 µM
6 | CC[C@H](C)C[C@H]1CC[C@](O)([C@](C)(O)C(=O)N[C@@H]2C(=O)N3NCCC[C@@H]3C(=O)N(O)[C@@H](C)C(=O)NCC(=O)N3NCCC[C@H]3C(=O)N(O)[C@H](C)C(=O)O[C@H]2C(C)C)O[C@@H]1C | 1.52 µM
7 | O=c1[nH]cccc1NS(=O)(=O)c1ccc(F)cc1 | > 50 µM (inactive)
8 | Cc1cccc(CNC(=O)C2CCCN(S(=O)(=O)Cc3ccc(F)cc3)C2)c1 (centres undefined) | 26.6 µM
9 | C[C@]12C(=O)N(c3ccc(C(=O)NCc4ccc(F)cc4)cc3)C(=O)N1CCc1c2[nH]c2ccccc12 | 40.6 µM
10 | COc1ccccc1-c1nc2c3c(C)c(C)n(Cc4cccnc4)c3ncn2n1 | 20.4 µM
11 | Cc1ccccc1-c1nnc(-c2ccc(C(=O)NCc3ccccc3F)cc2)o1 | 12.6 µM
12 | CO[C@H]1CC[C@H](O)c2c1oc1c3c4c(c(O)c1c2=O)-c1c(cc2c(Cl)c(C)n(N)c(=O)c2c1O)C[C@@H]4OCO3 | 20.3 µM
13 | CN1CCC(N(C)S(=O)(=O)c2ccc(NC(=O)c3cccc(OCc4ccccc4)c3)cc2)CC1 | 17.2 µM
14 | CC1(O)CC(=O)c2c(cc3cc(O)cc(O)c3c2O)C1 (centres undefined) | 0.0671 µM
15 | CCc1ccc2[nH]c3c(c(=O)c2c1)CN(CC(=O)NCc1ccc2c(c1)OCO2)CC3 | 20 µM
16 | CC(C)Cc1nc2sc3c(NCc4ccccc4)ncnc3c2c2c1COC(C)(C)C2 | 6.15 µM
17 | O=C(COc1ccc(F)cc1)Nc1cnc(-c2ccc(Cl)cc2)nc1 | 34.2 µM
18 | Cc1cnc2nc3c(cc2c1)CN(S(=O)(=O)c1cc(F)ccc1C)CC3 | > 50 µM (inactive)
19 | CCn1cc(-c2nc(-c3ccccc3)no2)c(=O)c2cc(F)ccc21 | 7.65 µM
20 | C[C@H](NC(=O)Cc1ccccc1F)c1nc2cc(-c3ccccc3F)ncn2n1 | > 50 µM (inactive)
21 | Cc1nn(C)c2c1[C@@H](c1ccc(F)cc1)[C@H](NC(=O)c1ccccc1)C(=O)N2 | 16 µM
22 | Cc1cc(C)n(-c2ccc(C(=O)Nc3cccc(S(=O)(=O)N4CCCC4)c3)cc2)n1 | 2.13 µM
23 | COCCNC(=O)c1ccc(-c2ccc(N3CCCCC3)nc2)cc1 | 19.6 µM
24 | Cc1ccc(CN2CCCn3nc(C(=O)NCc4ccccc4C)cc3C2=O)cc1 | 45.2 µM
25 | O=C(Cn1cccc1-c1nc(-c2ccccc2)cs1)N1CCOCC1 | 18.3 µM

Row | Compound | IC50
26 | O=C(Cc1noc2ccccc12)N1CCN(c2ccc([N+](=O)[O-])cc2)CC1 | > 50 µM (inactive)
27 | CC(C)(C)c1cc(CCC(=O)Nc2c3c(nc4c2CCC4)CCCC3)cc(C(C)(C)C)c1O | > 50 µM (inactive)
28 | O=C(Nc1ccc2c(c1)OCCO2)c1cccc2nc3ccccc3nc12 | 1.99 µM
29 | CCOc1ccc2nc(NC(=O)C3CCN(S(=O)(=O)c4ccc5c(c4)CC(C)N5C(C)=O)CC3)sc2c1 (centres undefined) | > 50 µM (inactive)
30 | CCOc1ccccc1NC(=O)Cn1ccn2nc(-c3ccc(OC)cc3)cc2c1=O | 16.5 µM
31 | O=C(CN(Cc1ccc(Cl)cc1)S(=O)(=O)c1ccc(Cl)cc1)N1CCOCC1 | > 50 µM (inactive)
32 | COc1ccc(CCNC(=O)c2cc3ccccc3s2)cc1OC | 2.07 µM
33 | O=C(O)C1CCN(Cc2c(-c3ccco3)nc3ccc(Cl)cn23)CC1 | > 50 µM (inactive)
34 | COc1cccc(CNC(=O)C2=Cc3cccc(OC)c3OC2)c1 | 8.65 µM
35 | CCC(=O)Nc1ccc(-c2nc(Cn3cc(C)cn3)c(C)o2)cc1 | 3.7 µM
36 | COC(=O)c1cc2c(ccn2C)n1CC(=O)NC1CCCC1 | > 50 µM (inactive)
37 | CC1=CN2C(=N)/C(=C/c3cn(Cc4ccc(Cl)cc4)c4ccccc34)C(=O)N=C2S1 | > 50 µM (inactive)
38 | O=C(Nc1ncc2c(n1)-c1ccccc1CC2)C1CC1 | 17.6 µM
39 | CSc1ccc(CNCc2c(C(=O)O)n(Cc3ccccc3)c3cc(C)ccc23)cc1 | > 5 µM (inactive)
40 | Cc1cccc(-c2nc3n(CC(=O)Nc4ccc(Cl)cc4)c(C)cc(=O)n3n2)c1 | 0.985 µM
41 | COc1ccc(C2SCC(=O)Nc3c2c(=O)[nH]n3C2CCCCCC2)cc1 (centres undefined) | 25.7 µM
42 | COc1ccc(C2/C(=C(\O)c3ccccc3)C(=O)C(=O)N2c2nc3ccc(F)cc3s2)cc1 (centres undefined) | 21.6 µM
43 | COc1ccccc1NC(=O)Nc1ccc(NC(=O)c2ccccc2O)cc1 | 37.4 µM
44 | N#Cc1cccc(NC(=O)Nc2cccn(Cc3ccccc3F)c2=O)c1 | 4.02 µM
45 | NC(=O)c1ccc(NC(=O)Cc2cc(-c3ccc(Cl)cc3)on2)cc1 | > 50 µM (inactive)
46 | O=C(Cn1c(=O)n(Cc2ccc3c(c2)OCO3)c(=O)c2ncccc21)c1ccc(Cl)cc1 | 30.4 µM
47 | CCn1c(=O)c2ccccc2n(Cc2nc(-c3ccccc3OC)no2)c1=O | > 50 µM (inactive)
48 | Cc1cc(/C=C2/C(=N)N3C(c4ccccc4)=CSC3=NC2=O)c(C)n1-c1ccc(F)cc1 | > 50 µM (inactive)
49 | COc1ccc(OC)c(-c2cn3ccn(-c4ccc5c(c4)CCC5)c(=O)c3n2)c1 | > 50 µM (inactive)
